From the NIST ThermoML archive (doi:10.1016/j.fluid.2008.03.004)

Assay: xn = mol fraction of the nth substance listed
Details: 101 kPa, Liquid; for speed of sound: Sing-around technique in a fixed-path interferometer

CCOC(C)(C)C [2-ethoxy-2-methylpropane] + Cc1cccc(C)c1
Details	mass density [kg/m3]	speed of sound [m/s]
288.15 K, x1 = 0.05	862.187	1345.6
288.15 K, x1 = 0.099	856.037	1332.2
288.15 K, x1 = 0.2	843.698	1303.2
288.15 K, x1 = 0.3	831.159	1274.6
288.15 K, x1 = 0.4	818.865	1245.5
288.15 K, x1 = 0.497	806.713	1217.2
288.15 K, x1 = 0.598	794.326	1188.6
288.15 K, x1 = 0.698	782.295	1161.7
288.15 K, x1 = 0.8	770.134	1133.6
288.15 K, x1 = 0.898	757.936	1106.8
288.15 K, x1 = 0.95	751.668	1092.8
288.15 K, x1 = 1	744.955	1076.4
290.65 K, x1 = 0.05	860.034	1334.7
290.65 K, x1 = 0.099	853.866	1321.5
290.65 K, x1 = 0.2	841.488	1292.6
290.65 K, x1 = 0.3	828.907	1263.8
290.65 K, x1 = 0.4	816.576	1234.8
290.65 K, x1 = 0.497	804.386	1206.4
290.65 K, x1 = 0.598	791.955	1177.8
290.65 K, x1 = 0.698	779.883	1150.8
290.65 K, x1 = 0.8	767.68	1122.5
290.65 K, x1 = 0.898	755.44	1096
290.65 K, x1 = 0.95	749.148	1081.9
290.65 K, x1 = 1	742.482	1065.1
293.15 K, x1 = 0.05	857.873	1324.1
293.15 K, x1 = 0.099	851.684	1310.9
293.15 K, x1 = 0.2	839.267	1282
293.15 K, x1 = 0.3	826.644	1253.1
293.15 K, x1 = 0.4	814.272	1224.1
293.15 K, x1 = 0.497	802.042	1195.6
293.15 K, x1 = 0.598	789.571	1167
293.15 K, x1 = 0.698	777.456	1140
293.15 K, x1 = 0.8	765.209	1111.5
293.15 K, x1 = 0.898	752.927	1085.2
293.15 K, x1 = 0.95	746.612	1070.8
293.15 K, x1 = 1	739.947	1053.7
295.65 K, x1 = 0.05	855.708	1313.4
295.65 K, x1 = 0.099	849.502	1300.3
295.65 K, x1 = 0.2	837.044	1271.3
295.65 K, x1 = 0.3	824.379	1242.3
295.65 K, x1 = 0.4	811.966	1213.3
295.65 K, x1 = 0.497	799.693	1184.7
295.65 K, x1 = 0.598	787.18	1156
295.65 K, x1 = 0.698	775.026	1129.1
295.65 K, x1 = 0.8	762.735	1100.5
295.65 K, x1 = 0.898	750.406	1074.1
295.65 K, x1 = 0.95	744.068	1059.8
295.65 K, x1 = 1	737.374	1042.2
298.15 K, x1 = 0.05	853.541	1302.9
298.15 K, x1 = 0.099	847.315	1289.8
298.15 K, x1 = 0.2	834.815	1260.8
298.15 K, x1 = 0.3	822.108	1231.6
298.15 K, x1 = 0.4	809.656	1202.6
298.15 K, x1 = 0.497	797.343	1173.8
298.15 K, x1 = 0.598	784.785	1145.1
298.15 K, x1 = 0.698	772.587	1118.2
298.15 K, x1 = 0.8	760.251	1089.5
298.15 K, x1 = 0.898	747.878	1063
298.15 K, x1 = 0.95	741.515	1048.7
298.15 K, x1 = 1	734.806	1031
300.65 K, x1 = 0.05	851.372	1292.5
300.65 K, x1 = 0.099	845.128	1279.3
300.65 K, x1 = 0.2	832.584	1250.2
300.65 K, x1 = 0.3	819.837	1221
300.65 K, x1 = 0.4	807.341	1191.8
300.65 K, x1 = 0.497	794.987	1163.1
300.65 K, x1 = 0.598	782.385	1134.2
300.65 K, x1 = 0.698	770.145	1107.3
300.65 K, x1 = 0.8	757.762	1078.4
300.65 K, x1 = 0.898	745.343	1051.9
300.65 K, x1 = 0.95	738.954	1037.6
300.65 K, x1 = 1	732.225	1019.8
303.15 K, x1 = 0.05	849.201	1282.1
303.15 K, x1 = 0.099	842.934	1268.9
303.15 K, x1 = 0.2	830.351	1239.8
303.15 K, x1 = 0.3	817.559	1210.3
303.15 K, x1 = 0.4	805.022	1181.2
303.15 K, x1 = 0.497	792.628	1152.3
303.15 K, x1 = 0.598	779.979	1123.3
303.15 K, x1 = 0.698	767.695	1096.3
303.15 K, x1 = 0.8	755.266	1067.5
303.15 K, x1 = 0.898	742.8	1040.8
303.15 K, x1 = 0.95	736.382	1026.5
303.15 K, x1 = 1	729.647	1008.6
305.65 K, x1 = 0.05	847.026	1271.7
305.65 K, x1 = 0.099	840.74	1258.6
305.65 K, x1 = 0.2	828.116	1229.3
305.65 K, x1 = 0.3	815.278	1199.8
305.65 K, x1 = 0.4	802.699	1170.5
305.65 K, x1 = 0.497	790.26	1141.6
305.65 K, x1 = 0.598	777.566	1112.5
305.65 K, x1 = 0.698	765.236	1085.4
305.65 K, x1 = 0.8	752.76	1056.5
305.65 K, x1 = 0.898	740.246	1029.8
305.65 K, x1 = 0.95	733.801	1015.3
305.65 K, x1 = 1	727.038	997.52
308.15 K, x1 = 0.05	844.847	1261.4
308.15 K, x1 = 0.099	838.542	1248.3
308.15 K, x1 = 0.2	825.874	1219
308.15 K, x1 = 0.3	812.993	1189.3
308.15 K, x1 = 0.4	800.369	1159.9
308.15 K, x1 = 0.497	787.887	1131
308.15 K, x1 = 0.598	775.147	1101.7
308.15 K, x1 = 0.698	762.77	1074.5
308.15 K, x1 = 0.8	750.245	1045.6
308.15 K, x1 = 0.898	737.68	1018.8
308.15 K, x1 = 0.95	731.212	1004.3
308.15 K, x1 = 1	724.443	986.39
310.65 K, x1 = 0.05	842.667	1251.2
310.65 K, x1 = 0.099	836.338	1238
310.65 K, x1 = 0.2	823.629	1208.6
310.65 K, x1 = 0.3	810.701	1178.8
310.65 K, x1 = 0.4	798.033	1149.3
310.65 K, x1 = 0.497	785.51	1120.3
310.65 K, x1 = 0.598	772.72	1091
310.65 K, x1 = 0.698	760.296	1063.7
310.65 K, x1 = 0.8	747.726	1034.7
310.65 K, x1 = 0.898	735.108	1007.8
310.65 K, x1 = 0.95	728.609	993.27
310.65 K, x1 = 1	721.826	975.42
313.15 K, x1 = 0.05	840.482	1241
313.15 K, x1 = 0.099	834.132	1227.8
313.15 K, x1 = 0.2	821.379	1198.3
313.15 K, x1 = 0.3	808.405	1168.3
313.15 K, x1 = 0.4	795.695	1138.9
313.15 K, x1 = 0.497	783.123	1109.8
313.15 K, x1 = 0.598	770.288	1080.4
313.15 K, x1 = 0.698	757.817	1053
313.15 K, x1 = 0.8	745.2	1024
313.15 K, x1 = 0.898	732.523	996.88
313.15 K, x1 = 0.95	726.007	982.39
313.15 K, x1 = 1	719.179	964.53
315.65 K, x1 = 0.05	838.29	1230.9
315.65 K, x1 = 0.099	831.922	1217.6
315.65 K, x1 = 0.2	819.125	1188
315.65 K, x1 = 0.3	806.105	1157.9
315.65 K, x1 = 0.4	793.351	1128.5
315.65 K, x1 = 0.497	780.733	1099.2
315.65 K, x1 = 0.598	767.848	1069.7
315.65 K, x1 = 0.698	755.328	1042.3
315.65 K, x1 = 0.8	742.656	1013.2
315.65 K, x1 = 0.898	729.931	985.99
315.65 K, x1 = 0.95	723.382	971.39
315.65 K, x1 = 1	716.527	953.54
318.15 K, x1 = 0.05	836.094	1220.7
318.15 K, x1 = 0.099	829.704	1207.4
318.15 K, x1 = 0.2	816.865	1177.8
318.15 K, x1 = 0.3	803.8	1147.6
318.15 K, x1 = 0.4	790.999	1118
318.15 K, x1 = 0.497	778.333	1088.7
318.15 K, x1 = 0.598	765.399	1059.2
318.15 K, x1 = 0.698	752.842	1031.8
318.15 K, x1 = 0.8	740.101	1002.4
318.15 K, x1 = 0.898	727.323	975.1
318.15 K, x1 = 0.95	720.743	960.42
318.15 K, x1 = 1	713.96	942.67
320.65 K, x1 = 0.05	833.892	1210.6
320.65 K, x1 = 0.099	827.484	1197.3
320.65 K, x1 = 0.2	814.602	1167.6
320.65 K, x1 = 0.3	801.489	1137.3
320.65 K, x1 = 0.4	788.639	1107.6
320.65 K, x1 = 0.497	775.926	1078.3
320.65 K, x1 = 0.598	762.944	1048.6
320.65 K, x1 = 0.698	750.335	1021.1
320.65 K, x1 = 0.8	737.539	991.66
320.65 K, x1 = 0.898	724.705	964.24
320.65 K, x1 = 0.95	718.093	949.5
320.65 K, x1 = 1	711.25	931.73
323.15 K, x1 = 0.05	831.689	1200.6
323.15 K, x1 = 0.099	825.258	1187.2
323.15 K, x1 = 0.2	812.331	1157.4
323.15 K, x1 = 0.3	799.17	1127
323.15 K, x1 = 0.4	786.273	1097.3
323.15 K, x1 = 0.497	773.51	1067.8
323.15 K, x1 = 0.598	760.487	1038.2
323.15 K, x1 = 0.698	747.817	1010.4
323.15 K, x1 = 0.8	734.964	980.96
323.15 K, x1 = 0.898	722.075	953.5
323.15 K, x1 = 0.95	715.433	938.66
323.15 K, x1 = 1	708.642	920.73
